pEC50, pIC50: −log10 of the molar value.
Columns and labels:
KRAS(G12C) [1] = target: T1, KRAS(G12C) (Homo sapiens, UniProt P01116, G12C); assay: KRAS(G12C) Western blot protein degradation assay in LU65A cells; type: cell-based; set-up: LU65A human lung cancer cell line, which expresses KRAS(G12C); host or cells: LU65A; settings: 6 hr
Method: The following cancer cell lines were employed: BT-474 human breast carcinoma (ATCC, #HTB-20); MIA PaCa-2 human pancreatic carcinoma [2 copies KRAS(G12C)](ATCC, #CRL-1420); NCI-H23 human non-small cell lung cancer [1 copy KRAS(G12C)](ATCC, #CRL-5800); NCI-H358 human non-small cell lung cancer [1 copy KRAS(G12C)](ATCC, #CRL-5807); LU65A human lung carcinoma (Pharmaron, Beijing, China). Cell lines were cultured essentially according to ATCC and Pharmaron recommendations.
KRAS(G12C) Western Blot Protein Degradation Assay
The MIA PaCa-2 human pancreatic carcinoma cell line and LU65A human lung cancer cell line, which expresses KRAS(G12C), were seeded in 6- or 12-well tissue culture plates, and after 1 hr, test compounds were added at various concentrations and incubated at 37° C./5% CO2 for 48 hr (MIA Paca-2) and 6 hr (LU65A) respectively. Cells were then washed with cold PBS, aspirated and cold RIPA buffer containing a protease/phosphatase inhibitor cocktail was added to lyse cells. After centrifugation, the total protein concentrations of cell lysates were determined using the BCA protein assay. Samples were normalized for equivalent protein concentrations, 5×SDS-PAGE loading buffer added and denatured at 100° C. for 10 min. 20 μl of each sample/well was loaded on a SDS-PAGE gel and electrophoresed for 20 min at 80 V, then 120 V for 1.5 hr. Gels were then electroblotted to nitrocellulose membranes using a wet-transfer method at 250 mA for 2.5 hr. Membranes were incubated with blocking buffer for 1 hr and washed 3 times with TBST for 5 min. Membranes were then incubated with anti-KRAS (Sigma-Aldrich, #SAB1404011) and anti-β-Actin monoclonal antibodies (Cell Signaling Technology, #3700) diluted in blocking buffer at 4° C. overnight per the manufacturer's recommendations. After washing 3 times, blots were incubated with appropriately labeled secondary antibodies for 1 hr at room temperature and washed again. Fluorescence imaging and quantitation was performed using a LI-COR Odyssey. Results was analyzed using GraphPad Prism 7 software. Compound degradation of was determined by the following equation and DC50 values (the concentration at which 50% of the maximal degradation of KRAS occurs) calculated using GraphPad Prism 7 software:
% Inhibition=100−(D−B)/(S−B)*100%. • S: Fluorescence intensity of cells with antibody • D: Fluorescence intensity of compound-treated cells with antibody • B: Fluorescence intensity of cells without antibody

[2] = system: MIA PaCa-2 human pancreatic carcinoma; assay: MIA PaCa-2 CCK-8 proliferation assay; type: cell-based; settings: Homo sapiens, MIA PaCa-2, 72 h, MIA PaCa-2 cells
Outline: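 Proliferation of mutant-KRAS(G12C) cells (2 copies in MIA PaCa-2, single copy in NCI-H358/NCI-H23) measured with CCK-8 after treatment across 20 μM–1.02 nM; inhibition expressed relative to vehicle-treated wells after subtracting no-cell background.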

KRAS(G12C) [3] = target: T1, KRAS(G12C); assay: KRAS(G12C)/SOS1 homogeneous time-resolved fluorescence (HTRF) assay; set-up: purchased Cisbio 63ADK000CB16PEG; settings: absence of GTP, 4° C. for 3 hr, read-out: KRAS (G12C) binding
Outline: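 HTRF kit measuring compound-induced block of KRAS(G12C)-SOS1 interaction without GTP. Compounds tested as 3-fold serial dilutions down to 1.02 nM, incubated with reaction components 3 h at 4 °C in sealed plates before fluorescence read.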

T1 sequence (P01116 1-188 isoform P01116-2 G12C): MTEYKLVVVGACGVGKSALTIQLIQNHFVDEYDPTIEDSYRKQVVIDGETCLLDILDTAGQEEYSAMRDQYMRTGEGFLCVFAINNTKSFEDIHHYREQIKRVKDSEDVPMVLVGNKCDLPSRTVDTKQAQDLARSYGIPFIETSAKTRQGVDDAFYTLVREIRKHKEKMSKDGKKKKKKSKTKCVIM

| SMILES | DC50 (KRAS(G12C) [1]) | pEC50 [2] | pIC50 (KRAS(G12C) [3]) |
| --- | --- | --- | --- |
| C=CC(=O)N1CCN(c2nc(OC[C@@H]3CC[C@H](CN4CCN(Cc5ccc(-n6c(O)nnc6-c6cc(C(C)C)c(O)cc6O)cc5)CC4)N3C)nc3c2CCN(c2cccc(C)c2C)C3)C[C@@H]1CC#N [Compound 281, 2-[(2S)-4-(2-{[(2S,5R)-5-{[4-({4-[3-(2,4-dihydroxy-5-isopropylphenyl)-5-hydroxy-1,2,4-triazol-4-yl]phenyl}methyl)piperazin-1-yl]methyl}-1-methylpyrrolidin-2-yl]methoxy}-7-(2,3-dimethylphenyl)-5H,6H,8H-pyrido[3,4-d]pyrimidin-4-yl)-1-(prop-2-enoyl)piperazin-2-yl]acetonitrile] | 100 to 1000 nM | 6.00 to 7.00 | > 7.00 |
| C=CC(=O)N1CCN(c2nc(OC[C@@H]3CC[C@H](CN4CCN(C(=O)C5CCN(Cc6ccc(-n7c(C(=O)NCC)nnc7-c7cc(CC)c(O)cc7O)cc6)CC5)CC4)N3C)nc3c2CCN(c2cccc4cccc(Cl)c24)C3)C[C@@H]1CC#N [Compound 244, 4-(4-{[4-(4-{[(2R,5S)-5-({[7-(8-chloronaphthalen-1-yl)-4-[(3S)-3-(cyanomethyl)-4-(prop-2-enoyl)piperazin-1-yl]-5H,6H,8H-pyrido[3,4-d]pyrimidin-2-yl]oxy}methyl)-1-methylpyrrolidin-2-yl]methyl}piperazine-1-carbonyl)piperidin-1-yl]methyl}phenyl)-N-ethyl-5-(5-ethyl-2,4-dihydroxyphenyl)-1,2,4-triazole-3-carboxamide] | 100 to 1000 nM | > 7.00 | > 7.00 |
| C=C(F)C(=O)N1CCN(c2nc(OC[C@@H]3CC[C@H](CN4CCN(Cc5ccc(-n6c(C(=O)NCC)nnc6-c6cc(C(C)C)c(O)cc6O)cc5)CC4)N3C)nc3c2CCN(c2cccc4ccccc24)C3)C[C@@H]1CC#N [Compound 287, 4-{4-[(4-{[(2R,5S)-5-[({4-[(3S)-3-(cyanomethyl)-4-(2-fluoroprop-2-enoyl)piperazin-1-yl]-7-(naphthalen-1-yl)-5H,6H,8H-pyrido[3,4-d]pyrimidin-2-yl}oxy)methyl]-1-methylpyrrolidin-2-yl]methyl}piperazin-1-yl)methyl]phenyl}-5-(2,4-dihydroxy-5-isopropylphenyl)-N-ethyl-1,2,4-triazole-3-carboxamide] | > 1000 nM | > 7.00 | 6.00 to 7.00 |
| C=CC(=O)N1CCN(c2nc(OC[C@@H]3C[C@H](N4CCN(Cc5ccc(-n6c(C(=O)NCC)nnc6-c6cc(C(C)C)c(O)cc6O)cc5)CC4)CN3C)nc3c2CCN(c2cccc4ccc(F)c(Cl)c24)C3)C[C@@H]1CC#N [Compound 278, 4-[4-({4-[(3S,5S)-5-({[7-(8-chloro-7-fluoronaphthalen-1-yl)-4-[(3S)-3-(cyanomethyl)-4-(prop-2-enoyl)piperazin-1-yl]-5H,6H,8H-pyrido[3,4-d]pyrimidin-2-yl]oxy}methyl)-1-methylpyrrolidin-3-yl]piperazin-1-yl}methyl)phenyl]-5-(2,4-dihydroxy-5-isopropylphenyl)-N-ethyl-1,2,4-triazole-3-carboxamide] | 100 to 1000 nM | 6.00 to 7.00 | > 7.00 |

Results, then the compound that gave them:

| DC50 (KRAS(G12C) [1]) | pEC50 [2] | pIC50 (KRAS(G12C) [3]) | SMILES |
| --- | --- | --- | --- |
| 100 to 1000 nM | > 7.00 | > 7.00 | C=CC(=O)N1CCN(c2nc(OC[C@@H]3CC[C@H](CN4CCN(C(=O)C5CCN(Cc6ccc(-n7c(C(=O)NCC)nnc7-c7cc(C(C)C)c(O)cc7O)cc6)CC5)CC4)N3C)nc3c2CCN(c2cccc4cccc(Cl)c24)C3)C[C@@H]1CC#N [Compound 240, 4-(4-{[4-(4-{[(2R,5S)-5-({[7-(8-chloronaphthalen-1-yl)-4-[(3S)-3-(cyanomethyl)-4-(prop-2-enoyl)piperazin-1-yl]-5H,6H,8H-pyrido[3,4-d]pyrimidin-2-yl]oxy}methyl)-1-methylpyrrolidin-2-yl]methyl}piperazine-1-carbonyl)piperidin-1-yl]methyl}phenyl)-5-(2,4-dihydroxy-5-isopropylphenyl)-N-ethyl-1,2,4-triazole-3-carboxamide] |
| > 1000 nM | > 7.00 | 6.00 to 7.00 | C=C(F)C(=O)N1CCN(c2nc(OC[C@@H]3CC[C@H](CN4CCN(Cc5ccc(-n6c(O)nnc6-c6cc(C(C)C)c(O)cc6O)cc5)CC4)N3C)nc3c2CCN(c2cccc4ccccc24)C3)C[C@@H]1CC#N [Compound 286, 2-[(2S)-4-(2-{[(2S,5R)-5-{[4-({4-[3-(2,4-dihydroxy-5-isopropylphenyl)-5-hydroxy-1,2,4-triazol-4-yl]phenyl}methyl)piperazin-1-yl]methyl}-1-methylpyrrolidin-2-yl]methoxy}-7-(naphthalen-1-yl)-5H,6H,8H-pyrido[3,4-d]pyrimidin-4-yl)-1-(2-fluoroprop-2-enoyl)piperazin-2-yl]acetonitrile] |
| > 1000 nM | 6.00 to 7.00 | > 7.00 | C=CC(=O)N1CCN(c2nc(OC[C@@H]3CC[C@H](CN4CCN(Cc5ccc(-n6c(O)nnc6-c6cc(C(C)C)c(O)cc6O)cc5)CC4)N3C)nc3c2CCN(c2cccc4ccc(F)c(Cl)c24)C3)C[C@@H]1CC#N [Compound 268, 2-[(2S)-4-[7-(8-chloro-7-fluoronaphthalen-1-yl)-2-{[(2S,5R)-5-{[4-({4-[3-(2,4-dihydroxy-5-isopropylphenyl)-5-hydroxy-1,2,4-triazol-4-yl]phenyl}methyl)piperazin-1-yl]methyl}-1-methylpyrrolidin-2-yl]methoxy}-5H,6H,8H-pyrido[3,4-d]pyramidin-4-yl]-1-(prop-2-enoyl)piperazin-2-yl]acetonitrile] |
| > 1000 nM | > 7.00 | > 7.00 | C=CC(=O)N1CCN(c2nc(OC[C@@H]3CC[C@H](CN4CCN(Cc5ccc(-n6c(C(=O)NCC)nnc6-c6cc(C(C)C)c(O)cc6O)cc5)CC4)N3C)nc3c2CCN(c2cccc4ccccc24)C3)C[C@@H]1CC#N [Compound 288, 4-{4-[(4-{[(2R,5S)-5-[({4-[(3S)-3-(cyanomethyl)-4-(prop-2-enoyl)piperazin-1-yl]-7-(naphthalen-1-yl)-5H,6H,8H-pyrido[3,4-d]pyrimidin-2-yl}oxy)methyl]-1-methylpyrrolidin-2-yl]methyl}piperazin-1-yl)methyl]phenyl}-5-(2,4-dihydroxy-5-isopropylphenyl)-N-ethyl-1,2,4-triazole-3-carboxamide] |
| > 1000 nM | 6.00 to 7.00 | > 7.00 | C=CC(=O)N1CCN(c2nc(OC[C@@H]3C[C@H](N4CCN(Cc5ccc(-n6c(O)nnc6-c6cc(C(C)C)c(O)cc6O)cc5)CC4)CN3C)nc3c2CCN(c2cccc4ccc(F)c(Cl)c24)C3)C[C@@H]1CC#N [Compound 277, 2-[(2S)-4-[7-(8-chloro-7-fluoronaphthalen-1-yl)-2-{[(2S,4S)-4-[4-({4-[3-(2,4-dihydroxy-5-isopropylphenyl)-5-hydroxy-1,2,4-triazol-4-yl]phenyl}methyl)piperazin-1-yl]-1-methylpyrrolidin-2-yl]methoxy}-5H,6H,8H-pyrido[3,4-d]pyrimidin-4-yl]-1-(prop-2-enoyl)piperazin-2-yl]acetonitrile] |
| 100 to 1000 nM | 6.00 to 7.00 | > 7.00 | C=CC(=O)N1CCN(c2nc(OCC3(CN4CCN(Cc5ccc(-n6c(O)nnc6-c6cc(C(C)C)c(O)cc6O)cc5)CC4)CC3)nc3c2CCN(c2cccc4cccc(Cl)c24)C3)C[C@@H]1CC#N [Compound 284, 2-[(2S)-4-[7-(8-chloronaphthalen-1-yl)-2-[(1-{[4-({4-[3-(2,4-dihydroxy-5-isopropylphenyl)-5-hydroxy-1,2,4-triazol-4-yl]phenyl}methyl)piperazin-1-yl]methyl}cyclopropyl)methoxy]-5H,6H,8H-pyrido[3,4-d]pyrimidin-4-yl]-1-(prop-2-enoyl)piperazin-2-yl]acetonitrile] |

Source: patent US20230391772A1, “METHODS AND COMPOSITIONS FOR TARGETED PROTEIN DEGRADATION” (Ranok Therapeutics (Hangzhou) Co. Ltd., priority 2020, published 2023)
